Source: the NIST ThermoML archive (doi:10.1021/je050070r)

Settings: Liquid

O=C(O)C(F)(F)C(F)(F)C(F)(F)C(F)(F)C(F)(F)C(F)(F)C(F)(F)C(F)(F)F [perfluorononanoic acid]
Settings	vapor or sublimation pressure [kPa]
372.78 K	1.12
382.69 K	2.02
390.81 K	3.12
401.7 K	5.54
412.92 K	9.33
423.86 K	15.19
432.85 K	22.77
446.11 K	37.25
461.08 K	62.07
476.13 K	99.97
476.27 K	99.97

O=C(O)C(F)(F)C(F)(F)C(F)(F)C(F)(F)C(F)(F)C(F)(F)C(F)(F)C(F)(F)C(F)(F)C(F)(F)C(F)(F)F [dodecanoic acid, tricosafluoro-]
Settings	vapor or sublimation pressure [kPa]
400.73 K	0.856
413.72 K	1.819
422.1 K	2.854
422.75 K	2.985
433.27 K	4.848
445.63 K	8.29
457.94 K	13.81
470.59 K	22.07
483.66 K	34.48
498.85 K	55.15
520.51 K	99.96

O=C(O)C(F)(F)C(F)(F)C(F)(F)C(F)(F)C(F)(F)C(F)(F)C(F)(F)C(F)(F)C(F)(F)C(F)(F)F [perfluoroundecanoic acid]
Settings	vapor or sublimation pressure [kPa]
385.19 K	0.616
393.78 K	1.062
402.69 K	1.752
412.29 K	2.785
412.41 K	2.789
422.37 K	4.513
431.47 K	6.925
445.17 K	12.44
459.92 K	20.7
473.83 K	34.49
475.24 K	34.48
491.44 K	58.6
491.79 K	58.6
509.83 K	96.51
510.8 K	99.97

O=C(O)C(F)(F)C(F)(F)C(F)(F)C(F)(F)C(F)(F)C(F)(F)C(F)(F)F [pentadecafluorooctanoic acid]
Settings	vapor or sublimation pressure [kPa]
332.4 K	0.128
335.52 K	0.168
339.75 K	0.231
345.75 K	0.361
352.15 K	0.581
359.75 K	0.96
368.05 K	1.602
377.09 K	2.69
387.15 K	4.591
397.55 K	7.691
409.26 K	13.07
421.75 K	22.16
435.35 K	37.25
450.95 K	63.98
463.95 K	96.5

O=C(O)C(F)(F)C(F)(F)C(F)(F)C(F)(F)C(F)(F)C(F)(F)C(F)(F)C(F)(F)C(F)(F)F [nonadecafluorodecanoic acid]
Settings	vapor or sublimation pressure [kPa]
402.71 K	3.129
406.24 K	3.749
414.08 K	5.541
425.35 K	9.331
436.83 K	15.18
447.12 K	22.77
460.65 K	37.23
476.08 K	62.05
492.03 K	99.97
